Test results reported in ChEMBL document CHEMBL3886802, “Serine/threonine kinase inhibitors” (2016).

Molecular target: Mitogen-activated protein kinase 1 (Homo sapiens, UniProt P28482)
Assay: Enzymatic Assay: Compounds were tested in an enzymatic assay using human ERK-2 (Mitogen Activated Kinase 1), recombinantly expressed as an n-terminal 6-His fusion protein in E. coli and corresponding to a 8-360. The substrate used was the fluorescent Omnia peptide S/T17 (Invitrogen of Carlsbad, Calif.; Cat. KNZ1171C). Test compounds were diluted in DMSO in 3-fold serial dilutions at 100× final concentrations. […] The assay was run at ambient temperature in a white 384-well polypropylene plate (Nunc, Inc of Naperville, Ill.; Cat. 267462) collecting data every 50 seconds for approximately 30 minutes on an Envision plate reader (PerkinElmer, Inc. of Waltham, Mass.); Excitation 340 nm/Emission 495 nm.

Mitogen-activated protein kinase 1, sequence (P28482 whole entry, the tested form may be a part): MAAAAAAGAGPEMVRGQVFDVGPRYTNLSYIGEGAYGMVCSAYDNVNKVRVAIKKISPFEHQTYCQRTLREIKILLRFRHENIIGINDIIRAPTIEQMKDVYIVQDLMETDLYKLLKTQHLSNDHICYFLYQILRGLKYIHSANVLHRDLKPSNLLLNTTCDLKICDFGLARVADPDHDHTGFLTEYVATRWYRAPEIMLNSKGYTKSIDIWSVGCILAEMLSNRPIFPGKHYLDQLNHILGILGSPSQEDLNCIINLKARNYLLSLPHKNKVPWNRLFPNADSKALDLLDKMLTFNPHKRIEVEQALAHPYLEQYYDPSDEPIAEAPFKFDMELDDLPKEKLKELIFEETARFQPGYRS

IC50: 0.748 nM
SMILES: Cn1nccc1Nc1cc2nc(C(=O)N[C@H](CO)c3ccc(Cl)c(F)c3)ccc2cn1
